From patent US5086047A, “Novel steroids” (Roussel Uclaf, Department des Brevets, priority 1989, dated 1992)
Like-named read-outs stand apart in the source and are kept apart here.

Key:
[1] = molecular target: T1, aromatase (cytochrome P450 aromatase) (Homo sapiens, UniProt P11511); assay: Aromatase inhibition in vitro, human placental microsomes, tritiated water release from 1β,2β-(H^3)-Androstenedione; format: biochemical
T1 construct: This supernatant was then subjected to an ultra-centrifugation stage (90 minutes, 150,000 g) to obtain the microsomal deposit; from tissue; host or cells: human placenta, microsomal fraction
T1 sequence (P11511 1-503): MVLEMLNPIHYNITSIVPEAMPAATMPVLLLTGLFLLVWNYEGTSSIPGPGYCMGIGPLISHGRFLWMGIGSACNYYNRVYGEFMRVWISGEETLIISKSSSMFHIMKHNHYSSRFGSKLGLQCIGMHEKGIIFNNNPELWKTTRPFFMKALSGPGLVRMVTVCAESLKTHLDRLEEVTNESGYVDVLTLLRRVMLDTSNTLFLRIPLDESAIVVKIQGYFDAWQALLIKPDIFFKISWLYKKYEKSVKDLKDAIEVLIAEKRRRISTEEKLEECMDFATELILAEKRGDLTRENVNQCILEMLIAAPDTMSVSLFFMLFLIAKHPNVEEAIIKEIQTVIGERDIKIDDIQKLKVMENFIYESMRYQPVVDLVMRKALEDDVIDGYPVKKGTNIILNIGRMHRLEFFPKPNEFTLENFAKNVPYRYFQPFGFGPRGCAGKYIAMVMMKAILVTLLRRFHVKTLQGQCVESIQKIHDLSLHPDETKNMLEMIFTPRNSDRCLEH
Experimental: Inhibition dependent on the concentration (measurement of the IC50 =concentration of the inhibitor necessary to reduce the enzymatic activity by 50%).
Human placentas were used which were washed one hour at most after delivery, perfused with physiological serum (5 liters) via the umbilical vein and then deep-frozen at -40° C.
The placentas were thawed at 4° C. and then homogenized (1:3) in a 10 mM phosphate buffer, pH=7.0 containing 100 millimoles of potassium chloride (KCl), 10 millimoles of dithiothreitol (DTT), 10 millimoles of ethylenediamine-tetraacetic acid (EDTA), 40 millimoles of nicotinamide and 250 millimoles of sucrose. The homogenates were then subjected to different phases of centrifugation until the "9000 g" supernatant was obtained (corresponding to cytosol and to endoplasmic reticulum). This supernatant was then subjected to an ultra-centrifugation stage (90 minutes, 150,000 g) to obtain the microsomal deposit. The microsomes were then resuspended in a 50 mM phosphate buffer, pH=7.4, containing 100 millimoles KCl, 1 millimole EDTA, 1 millimole DTT and glycerol (10%). The microsomal suspension was aliquoted and the fractions deep-frozen at the temperature of liquid nitrogen. The concentration of proteins in the microsomal suspension was determined by the BRADFORD method (BRADFORD., Anal. Biochem., Vol. 72, (1976) 248).
To 960 microliters of phosphate buffer (50 millimoles, pH=7.2) 2.5 millimoles glucose-6-phosphate, and containing 0.16 international units of glucose-6-phosphate dehydrogenase (G-6-PDH), the following were added in this order:
1) -10 microliters of inhibitor solubilized in dimethyl-sulfoxide (DMSO) to give final concentrations from 10^-5 M to 10^-10 M.
2) -10 microliters of substrate which was 500 nM Androstenedione solubilized in ethanol and containing 1β,- 2β-(H^3)-Androstenedione in a known isotopic dilution (approx. 200,000 disintegrations per minute).
3) 10 microliters of microsomal suspension equivalent to 25 micrograms of proteins per test.
The enzymatic reaction was then very rapidly initiated by the addition of 10 microliters of reduced nicotinamide adenine dinucleotide phosphate (NADPH) solubilized in water. After stirring, each test was incubated at 37° C. for 10 minutes. The reaction was then stopped by the addition of chloroform (4 ml).
After vigorous stirring of the tubes, they were decanted and centrifuged at 4° C. for 10 minutes at a speed of 3000 r.p.m. (rotations per minute), that is 600 X g. After centrifuging, and for each tube, 100 microliters of supernatant was removed and counted in the presence of a scintillating liquid. This method was derived from the procedures described by Reed et al, (J. Biol. Chem., Vol. 251, (1976), p. 1625) and Thompson et al, (J. Biol. Chem., Vol. 249, (1974), p. 5364). The enzymatic activity (aromatase) was proportional to the percentage of tritium salted out in the form of tritiated water (H^3 20) in the course of the reaction. The inhibition obtained for each concentration of each inhibiting product of the invention was calculated as a percentage of the controls (arbitrary 100%, obtained in the absence of any inhibitor). The CI50 was equal to the concentration of inhibitor necessary to decrease the enzymatic activity by 50% and the values of the CI50 's obtained for the inhibiting products of the invention are as follows: […]

seric estradiol = assay: Amount of estradiol circulating in rats induced with P.M.S.G.; format: in vivo, rat; conditions: female rats, PMSG 100 I.U., ** p<0.01
Experimental: I-AMOUNT OF ESTRADIOL CIRCULATING IN RATS INDUCED WITH P.M.S.G.
(Pregnant Mare Serum Gonadotrophine)
Female rats weighing 150 g were induced by an injection of P.M.S.G. (100 I.U./rat/sc). After 90 hours, the animals were treated with the product under test (sc or po) and a blood sample was taken before and after treatment to measure the amount of seric estradiol.
DO, -90 h: injection of 100 I.U. of PMSG/rat.
DO, 0 h: sample of blood from […] then treatment with the product under test.
DO, +2 h: sample of blood.
DO, +6 h: killing of animals and collection of blood.
After coagulation and centrifugation of the blood, the serum was recovered which was dosed with estradiol (E2) by means of an RIA dosage kit (Baxter ER155). The results were expressed as a percentage variation relative to the amount of estradiol at time 0 (each animal is its own control). The statistical test used is the Mann-Whitney U-test (*:p<0.05; **:p<0.01).

[2] = human placental microsomes, Androstenedione 500 nM, 37° C., 10 minutes, read-out: CI50 (concentration of inhibitor necessary to decrease the enzymatic activity by 50%)
[3] = Parenterally (so in the source), 5 mg/kg

SMILES | IC50 [1, 2] [nM] | percentage variation relative to the amount of estradiol at time 0, +2 h (seric estradiol; [3]) [percentage variation] | percentage variation relative to the amount of estradiol at time 0, +6 h (seric estradiol; [3]) [percentage variation] | percentage variation relative to the amount of estradiol at time 0, +2 h (seric estradiol; Subcutaneously, 1 mg/kg) [percentage variation] | percentage variation relative to the amount of estradiol at time 0, +6 h (seric estradiol; Subcutaneously, 1 mg/kg) [percentage variation] | IC50 [1] [nM]
C[C@]12CC=C3[C@@H](CCC4=CC(=O)CC[C@@]43CCSCF)[C@@H]1CCC2=O [Example 22] | 500 | – | – | – | – | –
C#CSCC[C@]12CCC(=O)C=C1CC[C@@H]1C2=CC[C@]2(C)C(=O)CC[C@@H]12 [Example 21, 10β-[2-(ethynylthio)-ethyl]-Δ^4,9(11) -estradiene-3,17-dione] | 330 | – | – | – | – | –
CSCC[C@]12CC[C@@H](O)C=C1CC[C@@H]1C2=CC[C@]2(C)[C@@H](O)CC[C@@H]12 [Example 26 (3 alpha OH)] | – | -53 | -53 | – | – | –
CSCC[C@]12CCC(=O)CC1CC[C@@H]1C2=CC[C@]2(C)C(=O)CC[C@@H]12 (stereo partly drawn) [Example 31, 10β-[2-(methylthio)-ethyl]-Δ^9(11) -estren-3,17-dione] | 5.5 | -69 | -56 | – | – | –
CSCC[C@]12CCC(=O)C=C1CC[C@@H]1C2=CC[C@]2(C)C(=O)CC[C@@H]12 [Example 1, 10β-[2-(methylthio)-ethyl]-Δ^4,9(11) -estradiene-3,17-dione] | – | -51 | -51 | -55 | -68 | 20
CSCC[C@]12CCC(=O)C=C1CC[C@@H]1C2=CC[C@]2(C)[C@@H](OC(=O)CCC(=O)O)CC[C@@H]12 [Example 27, Butanedioate of 10β-[2-(methylthio)-ethyl]-3-oxo-Δ^4,9(11) -estradien-17β-yl and of sodium] | – | -58 | -45 | -56 | -20 | –
CSCC[C@]12CC[C@H](O)C=C1CC[C@@H]1C2=CC[C@]2(C)[C@@H](O)CC[C@@H]12 [26 (3 beta OH), 10β-[2-(methylthio)-ethyl]-Δ^4,9(11) estradien-3β,17β-diol] | 165 | -63 | -64 | – | – | –
CCSCC[C@]12CCC(=O)C=C1CC[C@@H]1C2=CC[C@]2(C)C(=O)CC[C@@H]12 [Example 2] | 870 | – | – | – | – | –
CSCC[C@]12CCC(=O)C=C1CC[C@@H]1C2=CC[C@]2(C)[C@@H](O)CC[C@@H]12 [Example 13, 10β-[2-(methylthio)-ethyl]-Δ^4,9(11) -estradien-17-ol-3-one] | 50 | -70 | -53 | -56 | -60 | –
